Experimental data reported in US10098878B2, “HIF-2α inhibitors for treating iron overload disorders” (The Board of Regents of the University of Texas System, priority 2014, dated 2018).
Read-outs that look alike come from different tables or passages of the source. One block for each compound: values may come before it.

Legend:
786-O-Hif-Luc cells = test: Luciferase Assay; type: cell-based; settings: read-out: Luciferase EC50
Description: A pool of infected cells were then selected against 2 μg/mL of puromycin (P8833, Sigma) for 10 days followed by limited dilution to select single clones.
Each concentration was tested in triplicate. After about 24 hours, luciferase activity was determined using ONE-Glo Luciferase Assay Reagent (E6110, Promega) following the manufacturer's recommended procedure. EC50 were calculated by using Dotmatics software.

[1] = target: T1, HIF-2α HIS TAG-PASB Domain (Homo sapiens, UniProt Q99814); test: HIF-2α Scintillation Proximity Assay (SPA); type: binding; settings: 150 nM Compound 211 probe, 100 nM HIF-2α HIS TAG-PASB Domain; read-out: SPA IC50
T1 construct: 100 nM HIF-2α HIS TAG-PASB Domain
T1 sequence (Q99814 240-350 limits assumed): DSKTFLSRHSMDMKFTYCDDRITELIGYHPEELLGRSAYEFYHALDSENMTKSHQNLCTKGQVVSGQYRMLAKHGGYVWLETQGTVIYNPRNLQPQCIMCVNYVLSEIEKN
Description: The total assay volume was about 100 μL in the following configuration: 2 μL compound in 100% DMSO, 88 μL buffer with protein and probe and 10 μL of SPA beads. […] The percent inhibition was determined and IC50 values were calculated using the Dotmatics system based on the following equation: % inhibition=[(high control−sample)/(high control−low control)]×100.

[2] = 24 h, 786-O-Hif-Luc cells, about 24 hours
[3] = 786-O-Hif-Luc cells, about 24 hours

SMILES: N#CN=S(=O)(CF)c1ccc(Oc2cc(F)cc(C#N)c2)c2c1[C@H](O)C(F)(F)C2 (single isomer, unassigned) [Compound 49]
EC50 (786-O-Hif-Luc cells; [2]): 100 nM | IC50 [1]: 71 nM

SMILES: C=CCN=S(=O)(c1ccc(Oc2cc(F)cc(C#N)c2)c2c1[C@H](O)C(F)(F)C2)C(F)(F)F (single isomer, unassigned) [Compound 71]
EC50 (786-O-Hif-Luc cells; [3]): 1670 nM | IC50 [1]: 370 nM

SMILES: N#Cc1cc(F)cc(Oc2ccc3c(c2C(F)F)[C@@H](O)C(F)(F)S3(=O)=O)c1 (single isomer, unassigned) [Compound 113]
EC50 (786-O-Hif-Luc cells; [3]): 7 nM

SMILES: CS(=O)(=O)c1ccc(Oc2cc(F)cc(C#N)c2)c2c1[C@H](N)C(F)(F)C2 [Compound 6, 3-[(1S)-1-Amino-2,2-difluoro-7-methylsulfonyl-indan-4-yl]oxy-5-fluoro-benzonitrile]
EC50 (786-O-Hif-Luc cells; 24 h): 244 nM

SMILES: Cn1cc(Oc2ccc(S(=O)(=O)C(F)(F)F)c3c2CC(F)(F)[C@H]3O)cn1 [Compound 13, (S)-2,2-Difluoro-4-((1-methyl-1H-pyrazol-4-yl)oxy)-7-((trifluoromethyl)sulfonyl)-2,3-dihydro-1H-inden-1-ol]
EC50 (786-O-Hif-Luc cells; [2]): 177 nM

SMILES: [2H]C([2H])([2H])S(=O)(=O)c1ccc(Oc2cc(F)cc(C#N)c2)c2c1[C@]([2H])(O)C(F)(F)C2 [Compound 16, 3-[(1S)-1-Deuterio-2,2-difluoro-1-hydroxy-7-(trideuteriomethylsulfonyl)indan-4-yl]oxy-5-fluoro-benzonitrile]
EC50 (786-O-Hif-Luc cells; 24 h): 24 nM

SMILES: N#Cc1cncc(Oc2ccc(S(=O)(=O)C(F)(F)F)c3c2CC(F)(F)[C@H]3O)c1 [Compound 18, (S)-5-((2,2-Difluoro-1-hydroxy-7-((trifluoromethyl)sulfonyl)-2,3-dihydro-1H-inden-4-yl)oxy)nicotinonitrile]
EC50 (786-O-Hif-Luc cells; 24 h): 15 nM

SMILES: O=S(=O)(c1ccc(Oc2ccc(F)c3[nH]ncc23)c2c1C(O)C(F)(F)C2)C(F)(F)F (centres unmarked) [Compound 21, 2,2-Difluoro-4-((7-fluoro-1H-indazol-4-yl)oxy)-7-((trifluoromethyl)sulfonyl)-2,3-dihydro-1H-inden-1-ol]
EC50 (786-O-Hif-Luc cells; [2]): 137 nM

SMILES: CNS(=O)(=O)c1ccc(Oc2cc(F)cc(C#N)c2)c2c1[C@H](O)C(F)(F)C2 [Compound 26, (S)-7-(3-Cyano-5-fluorophenoxy)-2,2-difluoro-3-hydroxy-N-methyl-2,3-dihydro-1H-indene-4-sulfonamide]
EC50 (786-O-Hif-Luc cells; 24 h): 119 nM

SMILES: O=[N+]([O-])c1ccc(Oc2cc(F)cc(Cl)c2)c2c1C(O)CC2 (centres unmarked) [Compound 27, 4-(3-Chloro-5-fluorophenoxy)-7-nitro-2,3-dihydro-1H-inden-1-ol]
EC50 (786-O-Hif-Luc cells; [2]): 1390 nM

SMILES: CS(=O)(=O)c1ccc(Oc2cc(F)cc(C#N)c2)c2c1[C@H](O)[C@@H](F)C2 [Compound 35, 3-fluoro-5-(((1S,2S)-2-fluoro-1-hydroxy-7-(methylsulfonyl)-2,3-dihydro-1H-inden-4-yl)oxy)benzonitrile]
EC50 (786-O-Hif-Luc cells; 24 h): 473 nM

SMILES: CS(=O)(=O)c1ccc(Oc2cc(F)cc(C#N)c2)c2c1[C@H](O)CC2 [Compound 51, 3-fluoro-5-[(1R)-1-hydroxy-7-methylsulfonyl-indan-4-yl]oxy-benzonitrile]
EC50 (786-O-Hif-Luc cells; [2]): 650 nM

SMILES: N#Cc1cc(F)cc(Oc2ccc(S(N)(=O)=O)c3c2[C@H](F)C(F)(F)[C@H]3O)c1 [Compound 103, (1S,3S)-7-(3-cyano-5-fluoro-phenoxy)-1,2,2-trifluoro-3-hydroxy-indane-4-sulfonamide]
EC50 (786-O-Hif-Luc cells; 24 h): 253 nM

SMILES: N#Cc1cc(F)cc(Oc2ccc3c(c2C(F)F)C(O)C(F)(F)S3(=O)=O)c1 (centres unmarked) [Compound 139, 3-((4-(Difluoromethyl)-2,2-difluoro-3-hydroxy-1,1-dioxido-2,3-dihydrobenzo[b]thiophen-5-yl)oxy)-5-fluorobenzonitrile]
EC50 (786-O-Hif-Luc cells; [3]): 4 nM

SMILES: [2H][C@@]1(O)c2c(ccc(Oc3cc(F)cc(C#N)c3)c2C(F)F)S(=O)(=O)C1(F)F [Compound 153, (R)-3-((4-(Difluoromethyl)-2,2-difluoro-3-hydroxy-1,1-dioxido-2,3-dihydrobenzo[b]thiophen-5-yl-3-d)oxy)-5-fluorobenzonitrile]
EC50 (786-O-Hif-Luc cells; [3]): 6 nM

Further lines, results first:

EC50 (786-O-Hif-Luc cells; [2]): 115 nM | IC50 [1]: 63 nM
SMILES: CS(=O)(=NC#N)c1ccc(Oc2cc(F)cc(C#N)c2)c2c1[C@H](O)[C@H](F)C2 (mixture of isomers) [Compound 66, N-(((2R,3S)-7-(3-cyano-5-fluorophenoxy)-2-fluoro-3-hydroxy-2,3-dihydro-1H-inden-4-yl)(methyl)(oxo)-λ^6-sulfanylidene)cyanamide]

EC50 (786-O-Hif-Luc cells; [2]): 5900 nM | IC50 [1]: 5100 nM
SMILES: N#Cc1cc(F)cc(Oc2ccc(S(=O)(=O)C(F)(F)F)c3c2[C@@H](N)C[C@H]3O)c1 (relative stereo) [Compound 43, 3-((cis-3-amino-1-hydroxy-7-((trifluoromethyl)sulfonyl)-2,3-dihydro-1H-inden-4-yl)oxy)-5-fluorobenzonitrile]

EC50 (786-O-Hif-Luc cells; [2]): 897 nM | IC50 [1]: 90 nM
SMILES: N#Cc1cc(F)cc(Oc2ccc(S(=O)(=O)C(F)(F)F)c3c2CC(F)C3N)c1 (single isomer, unassigned) [Compound 29, 3-((1-amino-2-fluoro-7-((trifluoromethyl)sulfonyl)-2,3-dihydro-1H-inden-4-yl)oxy)-5-fluorobenzonitrile]

EC50 (786-O-Hif-Luc cells; [3]): 255 nM | IC50 [1]: 76 nM
SMILES: N#Cc1cc(F)cc(Oc2ccc(S(=N)(=O)CF)c3c2CC(F)(F)[C@H]3O)c1 (single isomer, unassigned) [Compound 39]

EC50 (786-O-Hif-Luc cells; [3]): 153 nM | IC50 [1]: 58 nM
SMILES: N#CN=S(=O)(CF)c1ccc(Oc2cc(F)cc(C#N)c2)c2c1[C@H](O)[C@H](F)C2 (single isomer, unassigned) [Compound 40]

EC50 (786-O-Hif-Luc cells): 19 nM
SMILES: N#Cc1cc(F)cc(Oc2ccc3c(c2C(F)F)[C@H](O)C(F)(F)S3(=O)=O)c1 (single isomer, unassigned) [Compound 144]

EC50 (786-O-Hif-Luc cells; [2]): 7 nM
SMILES: N#Cc1cc(F)cc(Oc2ccc(S(=O)(=O)C(F)F)c3c2CC(F)(F)[C@H]3O)c1 [Compound 1, 3-[(1S)-7-(difluoromethylsulfonyl)-2,2-difluoro-1-hydroxy-indan-4-yl]oxy-5-fluoro-benzonitrile]

EC50 (786-O-Hif-Luc cells; 24 h): 24 nM
SMILES: CS(=O)(=O)c1ccc(Oc2cc(F)cc(C#N)c2)c2c1[C@H](O)C(F)(F)C2 [Compound 5, (S)-3-((2,2-Difluoro-1-hydroxy-7-(methylsulfonyl)-2,3-dihydro-1H-inden-4-yl)oxy)-5-fluorobenzonitrile]

EC50 (786-O-Hif-Luc cells; [2]): 3 nM
SMILES: N#Cc1cc(F)cc(Oc2ccc(S(=O)(=O)C(F)(F)F)c3c2C[C@@H](F)[C@H]3O)c1 [Compound 15, 3-Fluoro-5-(((1S,2R)-2-fluoro-1-hydroxy-7-((trifluoromethyl)sulfonyl)-2,3-dihydro-1H-inden-4-yl)oxy)benzonitrile]

EC50 (786-O-Hif-Luc cells; 24 h): 36 nM
SMILES: CS(=O)(=O)c1ccc(Oc2cc(F)cc(C#N)c2)c2c1[C@H](O)[C@H](F)C2 [Compound 17, 3-Fluoro-5-(((1S,2R)-2-fluoro-1-hydroxy-7-(methylsulfonyl)-2,3-dihydro-1H-inden-4-yl)oxy)benzonitrile]

EC50 (786-O-Hif-Luc cells; 24 h): 24 nM
SMILES: [2H][C@]1(O)c2c(S(C)(=O)=O)ccc(Oc3cc(F)cc(C#N)c3)c2CC1(F)F [Compound 23, (S)-3-((2,2-Difluoro-1-hydroxy-7-(methylsulfonyl)-2,3-dihydro-1H-inden-4-yl-1-d)oxy)-5-fluorobenzonitrile]

EC50 (786-O-Hif-Luc cells; [2]): 4 nM
SMILES: CS(=O)(=O)c1ccc(Oc2cc(F)cc(C#N)c2)c2c1[C@H](O)[C@H](F)[C@@H]2F [Compound 53, 3-[(1S,2S,3R)-2,3-difluoro-1-hydroxy-7-methylsulfonyl-indan-4-yl]oxy-5-fluoro-benzonitrile]

EC50 (786-O-Hif-Luc cells; 24 h): 170 nM
SMILES: N#Cc1cc(F)cc(Oc2ccc(S(=O)(=O)C(F)(F)F)c3c2CC(F)(F)[C@H]3N)c1 [Compound 54, 3-[(1S)-1-amino-2,2-difluoro-7-(trifluoromethylsulfonyl)indan-4-yl]oxy-5-fluoro-benzonitrile]

EC50 (786-O-Hif-Luc cells; [2]): 1020 nM
SMILES: CS(=O)(=O)c1ccc(Oc2cc(F)cc(C#N)c2)c2c1[C@H](O)[C@H](F)[C@H]2F [Compound 58, 3-[(1S,2S,3S)-2,3-difluoro-1-hydroxy-7-methylsulfonyl-indan-4-yl]oxy-5-fluoro-benzonitrile]

EC50 (786-O-Hif-Luc cells; [2]): 67 nM
SMILES: N#Cc1cc(F)cc(Oc2ccc(S(N)(=O)=O)c3c2[C@@H](F)[C@@H](F)[C@H]3O)c1 [Compound 100, (1R,2S,3S)-7-(3-cyano-5-fluoro-phenoxy)-1,2-difluoro-3-hydroxy-indane-4-sulfonamide]

EC50 (786-O-Hif-Luc cells): 4800 nM
SMILES: O=S1(=O)CC(O)c2c1ccc(Oc1cc(F)cc(Cl)c1)c2Br (centres unmarked) [Compound 116, 4-Bromo-5-(3-chloro-5-fluorophenoxy)-3-hydroxy-2,3-dihydrobenzo[b]thiophene 1,1-dioxide]

EC50 (786-O-Hif-Luc cells; [2]): 124 nM
SMILES: O=S1(=O)c2ccc(Oc3cc(F)cc(F)c3)c(C(F)F)c2C(O)C1F (centres unmarked) [Compound 133, 4-(difluoromethyl)-5-(3,5-difluorophenoxy)-2-fluoro-3-hydroxy-2,3-dihydrobenzo[b]thiophene 1,1-dioxide]

EC50 (786-O-Hif-Luc cells): 12 nM
SMILES: [2H]C1(O)c2c(ccc(Oc3cc(F)cc(C#N)c3)c2C(F)F)S(=O)(=O)C1(F)F (centres unmarked) [Compound 150, 3-((4-(Difluoromethyl)-2,2-difluoro-3-hydroxy-1,1-dioxido-2,3-dihydrobenzo[b]thiophen-5-yl-3-d)oxy)-5-fluorobenzonitrile]

IC50 [1]: 4400 nM
SMILES: N#Cc1cc(F)cc(Oc2ccc3c(c2C(F)F)C(O)(C(F)(F)F)C(F)(F)S3(=O)=O)c1 (centres unmarked) [Compound 209, 3-((4-(difluoromethyl)-2,2-difluoro-3-hydroxy-1,1-dioxido-3-(trifluoromethyl)-2,3-dihydrobenzo[b]thiophen-5-yl)oxy)-5-fluorobenzonitrile]
